In ChEMBL document CHEMBL1152047, “(cis)-3-methyl-1,5-benzothiazepine-4-ones: potent analogs of the calcium channel blocker diltiazen” (Bioorg Med Chem Lett, 1993):

Species on record: Oryctolagus cuniculus
Experiment: Vasorelaxant potency determined by relaxation of potassium depolarized rabbit aortic strips
Assay type: functional
Conditions: Aorta

Question: `COc1ccc([C@@H]2Sc3ccccc3N(CCN(C)C)C(=O)[C@@H]2C)cc1` was tested. Which IC50 did it give?
Answer: 82 nM

Question: How did the IC50 turn out when `COc1ccc([C@@H]2Sc3cc(OC)ccc3N(CCN(C)C)C(=O)[C@@H]2OC(C)=O)cc1` was run?
Answer: 120 nM

Question: For `COc1ccc([C@@H]2Sc3cc(C(F)(F)F)ccc3N(CCN(C)C)C(=O)[C@@H]2C)cc1`, which IC50 is on record?
Answer: 22 nM

Question: For `COc1ccc([C@@H]2Sc3cc(OC)ccc3N(CCN(C)C)C(=O)[C@@H]2C)cc1`, which IC50 is on record?
Answer: 10 nM
